Earlier results as cited in US20070161566A1, “Method of treating multiple sclerosis” (Teva Pharmaceutical Industries, Ltd., priority 2006, published 2007).

Assays:
[1] = tested on: chronic progressive MS patients; settings: 15 mg twice per day (30 mg per day); up to 24 months
[2] = tested on: MS patients; settings: 20 mg/day subcutaneous dose

## L-glutamic acid polymer with L-alanine, L-lysine, L-tyrosine, acetate (salt) [GA]
[1]
  arrest or reversal of disease progress vs placebo: did not produce statistically significant difference
[2]
  total number of enhancing lesions as measured by MRI: reduce the total number of enhancing lesions
